Patent US20100029654A1, “CARDIOVASCULAR COMPOSITIONS AND USE OF THE SAME FOR THE TREATMENT OF ALZHEIMER'S DISEASE” (MOUNT SINAI SCHOOL OF MEDICINE, priority 2006, published 2010)
Structures can show the parent of a compound that is named as a salt. Where two headings read alike, the source gives them in different places.

Assays:
Aβ1-42 = Aβ1-42 content in conditioned medium of primary cortico-hippocampal neuron cultures from Tg2576 mice (ELISA; primary and secondary dose-response screening); assay type: cell-based, mouse; conditions: for activity at 100 µM: Mus musculus, Neuron, 24 h, read-out: Ab1-42 (% of ctl); for activity at 100 µM / Ab1-42 (% of ctl): drug 100 μM; for reducing Aβ1-42: <85% of ctl
Method: (§1) Potential Aβ-lowering activity was assessed for 150 commercially available cardiovascular drugs using primary cortico-hippocampal neuron cultures derived from embryonic Tg2576 (El 6). […] All cardiovascular reagents were obtained from MicroSource Discovery Systems Inc (Gaylordsville, Conn.). […] Individual cardiovascular agents were applied directly to the culture medium (final 1% DMSO in the culture media). In control studies, parallel Tg2576 primary neuron cultures were treated with vehicle (1% DMSO) alone. The influence of drug treatments in Aβ content in the conditioned medium in treated cultures was assessed by assessing steady state levels of Aβ1-40 and Aβ1-42 in the culture media 24 hours after treatment.
(§2) Embryonic brain tissue was mechanically triturated and centrifuged. Neurons were seeded onto poly-D-lysine-coated 96-well plates at 1.0×10^5 cells per well and cultured in the serum-free chemically-defined medium Neurobasal, supplemented with 2% B27, 0.5 mM L-glutamine and 1% penicillin-streptomycin (Gibco-BRL).
(§3) For primary screening, cultured neurons were treated with 100 μM of drug in duplicates for 16 hours; all drugs were obtained in stock from MicroSource Discovery Systems Inc (Gaylordsville, Conn.). Conditioned medium was collected for Aβ detection using commercially available ELISA kits (BioSource). […] Primary neurons prepared in 96-well plates were treated with 0.1 μM, 1 μM, 10 μM, 50 μM, and 100 μM of each drug in duplicate for ˜16 hours and conditioned medium was collected for Aβ detection.

Aβ1-40 = Aβ1-40 content in conditioned medium of primary cortico-hippocampal neuron cultures from Tg2576 mice (ELISA; primary and secondary dose-response screening); assay type: cell-based, mouse; conditions: for activity at 100 µM: Mus musculus, Neuron, 24 h, read-out: Ab1-40 (% of ctl); for activity at 100 µM / Ab1-40 (% of ctl): drug 100 μM; for reduced Aβ1-40: <85% of ctl
Method: as §1, §2, §3

[1] = system: primary cortico-hippocampal neuron cultures; assay: MTT in primary screening
[2] = system: primary cortico-hippocampal neuron cultures; assay: lactate dehydrogenase (LDH) activity assay in parallel neuron cultures
Method: For in vitro treatments drugs available from “The Spectrum Collection” in stocks of 10 mM in DMSO were applied directly to cultures to the desired concentrations (final 1% DMSO); control primary neuron cultures from Tg2576 embryos were treated with vehicle resulting in a final 1% DMSO.
Cell viability was assessed using a commercial available LDH assay kit according to the manufacture's instruction (Promega).

[3] = Primary Screening, table sorted by Aβ1-40
[4] = primary screening, Tg2576 neuron cultures, table sorted by Aβ1-42
[5] = primary screening, table sorted by Aβ1-42

SMILES | activity at 100 µM (Aβ1-42; [3]) [%] | activity at 100 µM (Aβ1-42; [4]) [%] | reducing Aβ1-42 (Aβ1-42; primary screening) | activity at 100 µM (Aβ1-40; [3]) [%] | activity at 100 µM (Aβ1-40; [4]) [%] | reduced Aβ1-40 (Aβ1-40; primary screening) | MTT (% of ctl) [1, 3] | MTT (% of ctl) [1, 5] | LDH (% of ctl) [2, 3] | LDH (% of ctl) [2, 5] | Ab1-42 (% of ctl) (Aβ1-42; [3]) | Ab1-42 (% of ctl) (Aβ1-42; [4]) | Ab1-40 (% of ctl) (Aβ1-40; [3]) | Ab1-40 (% of ctl) (Aβ1-40; [4]) | EC50 (Aβ1-40; secondary dose-response screening 0.01-100 μM, 24 hours, read-out: EC50 (molar) Aβ1-40) [µM] | LDH at E-5M % of change ([2]; drug at E-5M) [%]
CC(=O)S[C@@H]1CC2=CC(=O)CC[C@]2(C)[C@H]2CC[C@@]3(C)[C@@H](CC[C@@]34CCC(=O)O4)[C@H]12 [Spironolactone] | 70.7 | 70.7 | useful in reducing Aβ1-42 | 60.4 | 60.4 | reduced Aβ1-40 | 117.0 % of ctl | 117.0 % of ctl | 100.6 % of ctl | 100.6 % of ctl |  |  |  |  |  | 
NS(=O)(=O)c1cc2c(cc1C(F)(F)F)NC(Cc1ccccc1)NS2(=O)=O (stereo not drawn) [Bendrofumethiazide] |  |  | useful in reducing Aβ1-42 |  |  | reduced Aβ1-40 | 88.9 % of ctl | 88.9 % of ctl | 104.7 % of ctl | 104.7 % of ctl | 58.4 % of ctl | 58.4 % of ctl | 76.2 % of ctl | 76.2 % of ctl | 36.1 | 5.0
CCOc1nc2cccc(C(=O)OC(C)OC(=O)OC3CCCCC3)c2n1Cc1ccc(-c2ccccc2-c2nn[nH]n2)cc1 (stereo not drawn) [Candesartan Cilextil] |  |  | useful in reducing Aβ1-42 |  |  | reduced Aβ1-40 | 41.2 % of ctl | 41.2 % of ctl | 227.6 % of ctl | 227.6 % of ctl | 18.1 % of ctl | 18.1 % of ctl | 9.3 % of ctl | 9.3 % of ctl |  | 
CC(C)NCC(O)COc1ccc(CC(N)=O)cc1 (stereo not drawn) [Atenolol] | 94.5 | 94.5 |  | 90.4 | 90.4 |  | 97.3 % of ctl | 97.3 % of ctl | 136.8 % of ctl | 136.8 % of ctl |  |  |  |  |  | 
NS(=O)(=O)c1cc2c(cc1Cl)N=C(CSCc1ccccc1)NS2(=O)=O [Benzthiazide] | 98.9 | 98.9 |  | 106 | 106 |  | 98.5 % of ctl | 98.5 % of ctl | 105.1 % of ctl | 105.1 % of ctl |  |  |  |  |  | 
O=c1oc2ccccc2c(O)c1Cc1c(O)c2ccccc2oc1=O [Dicumarol] | 54 | 54 | useful in reducing Aβ1-42 | 51.3 | 51.3 | reduced Aβ1-40 | 97.0 % of ctl | 97.0 % of ctl | 93.3 % of ctl | 93.3 % of ctl |  |  |  |  |  | 
CC(C)(C)NCC(O)COc1cccc2[nH]c(=O)[nH]c12 (stereo not drawn) [2-HYDROXY-4-(2-HYDROXY-3-T-BUTYLAMINOPROPOXY)-BENZIMIDAZOLE] | 104 | 104 |  | 99.2 | 99.2 |  | 97.1 % of ctl | 97.1 % of ctl | 109.3 % of ctl | 109.3 % of ctl |  |  |  |  |  | 
CC(=O)O[C@H]1C[C@H](O[C@H]2[C@@H](O)C[C@H](O[C@H]3[C@@H](O)C[C@H](O[C@H]4CC[C@@]5(C)[C@H](CC[C@@H]6[C@@H]5C[C@@H](O)[C@]5(C)[C@@H](C7=CC(=O)OC7)CC[C@]65O)C4)O[C@@H]3C)O[C@@H]2C)O[C@H](C)[C@H]1O[C@@H]1O[C@H](CO)[C@@H](O)[C@H](O)[C@H]1O [Lanatoside C] |  |  |  |  |  | reduced Aβ1-40 | 66.5 % of ctl | 66.5 % of ctl | 166.0 % of ctl | 166.0 % of ctl | 100.3 % of ctl | 100.3 % of ctl | 45.8 % of ctl | 45.8 % of ctl |  | 
NS(=O)(=O)c1cc2c(cc1Cl)NC(C(Cl)Cl)NS2(=O)=O (stereo not drawn) [Trichlormethiazide] | 84.5 | 84.5 | useful in reducing Aβ1-42 | 89.3 | 89.3 |  | 105.5 % of ctl | 105.5 % of ctl | 102.6 % of ctl | 102.6 % of ctl |  |  |  |  |  | 
CCCCNc1cc(C(=O)O)cc(S(N)(=O)=O)c1Oc1ccccc1 [Bumetanide] | 74.7 | 74.7 | useful in reducing Aβ1-42 | 2.3 | 2.3 | reduced Aβ1-40 | 95.3 % of ctl | 95.3 % of ctl | 118.1 % of ctl | 118.1 % of ctl |  |  |  |  |  | 
COc1cc([S+](C)[O-])ccc1-c1nc2ncccc2[nH]1 (stereo not drawn) [Sulmazole] | 93.2 | 93.2 |  | 116 | 116 |  | 115.0 % of ctl | 115.0 % of ctl | 111.1 % of ctl | 111.1 % of ctl |  |  |  |  |  | 
CC(C)COCC(CN(Cc1ccccc1)c1ccccc1)N1CCCC1 (stereo not drawn) [Bepridil Hydrochloride] | 19.9 | 19.9 | useful in reducing Aβ1-42 | 5.1 | 5.1 | reduced Aβ1-40 | 77.1 % of ctl | 77.1 % of ctl | 1885.2 % of ctl | 1885.2 % of ctl |  |  |  |  |  | 
Cc1ccccc1N1C(=O)c2cc(S(N)(=O)=O)c(Cl)cc2NC1C (stereo not drawn) [Metolazone] | 98 | 98 |  | 104 | 104 |  | 69.7 % of ctl | 69.7 % of ctl | 103.7 % of ctl | 103.7 % of ctl |  |  |  |  |  | 
C#CCN(C)Cc1ccccc1 [Pargyline Hydrochloride] | 106 | 106 |  | 78.6 | 78.6 | reduced Aβ1-40 | 86.4 % of ctl | 86.4 % of ctl | 116.9 % of ctl | 116.9 % of ctl |  |  |  |  |  | 
